Where two headings read alike, the source gives them in different places.
Tests used:
HL60 = test: Cell growth inhibition in HL60; assay type: cell-based; details: Homo sapiens
22Rv1 cells = test: Cell growth inhibition assay (CellTiter-Glo) in 22Rv1; assay type: cell-based, human; details: Homo sapiens, 22Rv1, 96 h, read-out: Cell Growth Inhibition (IC50) 22Rv1
Experimental: Biological Assays. CBP/p300 degradation activity and cell growth inhibition were evaluated in the human prostate cancer cell line 22Rv1 (ATCC© CRL-2505™) purchased from the American Type Culture Collection (ATCC), Manassas, VA, and maintained and cultured in Dulbecco's Modified Eagle's medium (DMEM) containing 10% fetal bovine serum, 1 unit/ml of penicillin and 1 μg/ml of streptomycin. Cells with 3-8 passages after purchase were used in experiments.
Cell Growth Inhibition Assay Protocol. 22RV1 cells were seeded at a concentration of 4000 cells/well in 100 μl culture medium and 2 μl of test compound (final concentration start from 10 μM and 3 times dilution) into 96 well microplates (Corning 3903). The cell cultures were incubated for 96 h at +37° C. and 5% CO2. The plate and its contents were equilibrated to room temperature for approximately 30 minutes. 100 μl of CellTiter-Glo® 2.0 Reagent equal to the volume of cell culture medium present was added in each well. The contents were mixed for 2 minutes on an orbital shaker. The plate was allowed to incubate at room temperature for 10 minutes. The luminescence was recorded. The data was analyzed by Prism GraphPad 8.

CBP = target: T1, CBP (Homo sapiens, UniProt Q92793); test: CBP degradation in 22Rv1 cells (5 h); assay type: cell-based; details: 22Rv1 cells, 5 h; for Dmax: 22Rv1, 5 h, read-out: CBP Degradation (22Rv1, 5 h) DCmax
T1 construct: endogenous in cells; host or cells: 22Rv1 (ATCC CRL-2505) human prostate cancer cells
Text: (§1) Biological Assays. […] Cells with 3-8 passages after purchase were used in experiments.

P300 = target: T2, P300 (Homo sapiens, UniProt Q09472); test: P300 degradation in 22Rv1 cells (5 h); assay type: cell-based; details: 22Rv1 cells, 5 h; for Dmax: read-out: P300 Degradation (22Rv1, 5 h) DCmax
T2 construct: endogenous in cells; host or cells: 22Rv1 (ATCC CRL-2505) human prostate cancer cells
Text: as §1

[1] = HL-60, read-out: Cell Growth Inhibition (IC50) HL60

T2 sequence (Q09472 whole entry): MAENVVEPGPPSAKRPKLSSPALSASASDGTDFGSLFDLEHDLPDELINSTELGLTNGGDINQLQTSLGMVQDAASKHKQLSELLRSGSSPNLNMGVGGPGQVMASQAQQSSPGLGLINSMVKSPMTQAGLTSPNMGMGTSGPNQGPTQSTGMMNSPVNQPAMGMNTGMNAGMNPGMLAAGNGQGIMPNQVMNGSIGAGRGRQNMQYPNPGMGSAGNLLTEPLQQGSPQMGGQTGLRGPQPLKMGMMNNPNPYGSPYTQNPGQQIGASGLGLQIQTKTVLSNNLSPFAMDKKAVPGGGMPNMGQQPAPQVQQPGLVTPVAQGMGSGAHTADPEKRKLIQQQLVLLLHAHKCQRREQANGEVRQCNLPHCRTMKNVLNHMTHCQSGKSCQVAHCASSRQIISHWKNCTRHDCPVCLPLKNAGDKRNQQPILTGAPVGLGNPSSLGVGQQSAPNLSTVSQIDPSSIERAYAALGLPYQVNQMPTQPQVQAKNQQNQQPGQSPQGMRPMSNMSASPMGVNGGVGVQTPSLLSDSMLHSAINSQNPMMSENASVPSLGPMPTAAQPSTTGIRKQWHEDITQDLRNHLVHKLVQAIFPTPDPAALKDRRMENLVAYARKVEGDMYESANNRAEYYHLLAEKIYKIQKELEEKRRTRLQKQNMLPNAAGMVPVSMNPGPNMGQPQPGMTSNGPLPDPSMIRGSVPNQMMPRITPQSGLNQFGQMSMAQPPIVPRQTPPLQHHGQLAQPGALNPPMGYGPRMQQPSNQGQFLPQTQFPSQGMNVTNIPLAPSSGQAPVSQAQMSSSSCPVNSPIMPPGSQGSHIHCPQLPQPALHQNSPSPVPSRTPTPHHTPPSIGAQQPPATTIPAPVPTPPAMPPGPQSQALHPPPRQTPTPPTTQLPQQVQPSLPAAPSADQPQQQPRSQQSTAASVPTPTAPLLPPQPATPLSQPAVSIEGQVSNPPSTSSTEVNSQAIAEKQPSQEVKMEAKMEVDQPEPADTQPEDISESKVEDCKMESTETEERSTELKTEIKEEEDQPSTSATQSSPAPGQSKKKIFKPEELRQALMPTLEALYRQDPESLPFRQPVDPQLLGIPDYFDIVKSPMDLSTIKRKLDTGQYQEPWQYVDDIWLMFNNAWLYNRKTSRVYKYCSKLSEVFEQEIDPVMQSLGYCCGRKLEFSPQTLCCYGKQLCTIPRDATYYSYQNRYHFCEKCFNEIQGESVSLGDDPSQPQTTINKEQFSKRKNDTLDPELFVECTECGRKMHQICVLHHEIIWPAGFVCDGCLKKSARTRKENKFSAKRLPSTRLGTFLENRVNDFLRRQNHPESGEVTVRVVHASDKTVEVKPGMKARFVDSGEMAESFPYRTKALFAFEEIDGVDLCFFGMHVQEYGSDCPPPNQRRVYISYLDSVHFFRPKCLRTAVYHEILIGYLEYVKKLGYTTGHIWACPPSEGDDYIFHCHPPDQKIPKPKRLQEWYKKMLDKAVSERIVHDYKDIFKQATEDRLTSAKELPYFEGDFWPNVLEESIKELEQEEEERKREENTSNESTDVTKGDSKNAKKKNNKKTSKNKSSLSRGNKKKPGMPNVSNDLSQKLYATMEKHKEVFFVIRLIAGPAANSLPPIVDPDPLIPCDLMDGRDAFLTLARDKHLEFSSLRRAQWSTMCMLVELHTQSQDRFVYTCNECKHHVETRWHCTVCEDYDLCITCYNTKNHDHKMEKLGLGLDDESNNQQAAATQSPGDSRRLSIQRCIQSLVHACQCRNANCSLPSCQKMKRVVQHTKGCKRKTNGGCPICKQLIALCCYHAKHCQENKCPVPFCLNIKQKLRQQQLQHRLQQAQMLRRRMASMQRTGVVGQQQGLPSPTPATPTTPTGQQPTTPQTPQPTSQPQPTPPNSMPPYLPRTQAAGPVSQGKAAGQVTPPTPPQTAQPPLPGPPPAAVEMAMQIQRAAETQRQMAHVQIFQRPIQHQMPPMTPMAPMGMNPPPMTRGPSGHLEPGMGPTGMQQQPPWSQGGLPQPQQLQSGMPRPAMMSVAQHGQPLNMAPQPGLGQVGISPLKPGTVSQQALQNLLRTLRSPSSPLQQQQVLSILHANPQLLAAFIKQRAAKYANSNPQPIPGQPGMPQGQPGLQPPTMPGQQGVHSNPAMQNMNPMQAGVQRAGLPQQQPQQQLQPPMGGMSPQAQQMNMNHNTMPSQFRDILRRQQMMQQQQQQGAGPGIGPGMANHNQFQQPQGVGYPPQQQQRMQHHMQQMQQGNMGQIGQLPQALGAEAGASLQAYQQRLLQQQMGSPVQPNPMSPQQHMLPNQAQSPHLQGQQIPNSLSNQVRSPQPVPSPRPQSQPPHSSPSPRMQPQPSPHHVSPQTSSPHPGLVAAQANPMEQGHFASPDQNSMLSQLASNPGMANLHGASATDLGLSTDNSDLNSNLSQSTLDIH
T1 sequence (Q92793 whole entry): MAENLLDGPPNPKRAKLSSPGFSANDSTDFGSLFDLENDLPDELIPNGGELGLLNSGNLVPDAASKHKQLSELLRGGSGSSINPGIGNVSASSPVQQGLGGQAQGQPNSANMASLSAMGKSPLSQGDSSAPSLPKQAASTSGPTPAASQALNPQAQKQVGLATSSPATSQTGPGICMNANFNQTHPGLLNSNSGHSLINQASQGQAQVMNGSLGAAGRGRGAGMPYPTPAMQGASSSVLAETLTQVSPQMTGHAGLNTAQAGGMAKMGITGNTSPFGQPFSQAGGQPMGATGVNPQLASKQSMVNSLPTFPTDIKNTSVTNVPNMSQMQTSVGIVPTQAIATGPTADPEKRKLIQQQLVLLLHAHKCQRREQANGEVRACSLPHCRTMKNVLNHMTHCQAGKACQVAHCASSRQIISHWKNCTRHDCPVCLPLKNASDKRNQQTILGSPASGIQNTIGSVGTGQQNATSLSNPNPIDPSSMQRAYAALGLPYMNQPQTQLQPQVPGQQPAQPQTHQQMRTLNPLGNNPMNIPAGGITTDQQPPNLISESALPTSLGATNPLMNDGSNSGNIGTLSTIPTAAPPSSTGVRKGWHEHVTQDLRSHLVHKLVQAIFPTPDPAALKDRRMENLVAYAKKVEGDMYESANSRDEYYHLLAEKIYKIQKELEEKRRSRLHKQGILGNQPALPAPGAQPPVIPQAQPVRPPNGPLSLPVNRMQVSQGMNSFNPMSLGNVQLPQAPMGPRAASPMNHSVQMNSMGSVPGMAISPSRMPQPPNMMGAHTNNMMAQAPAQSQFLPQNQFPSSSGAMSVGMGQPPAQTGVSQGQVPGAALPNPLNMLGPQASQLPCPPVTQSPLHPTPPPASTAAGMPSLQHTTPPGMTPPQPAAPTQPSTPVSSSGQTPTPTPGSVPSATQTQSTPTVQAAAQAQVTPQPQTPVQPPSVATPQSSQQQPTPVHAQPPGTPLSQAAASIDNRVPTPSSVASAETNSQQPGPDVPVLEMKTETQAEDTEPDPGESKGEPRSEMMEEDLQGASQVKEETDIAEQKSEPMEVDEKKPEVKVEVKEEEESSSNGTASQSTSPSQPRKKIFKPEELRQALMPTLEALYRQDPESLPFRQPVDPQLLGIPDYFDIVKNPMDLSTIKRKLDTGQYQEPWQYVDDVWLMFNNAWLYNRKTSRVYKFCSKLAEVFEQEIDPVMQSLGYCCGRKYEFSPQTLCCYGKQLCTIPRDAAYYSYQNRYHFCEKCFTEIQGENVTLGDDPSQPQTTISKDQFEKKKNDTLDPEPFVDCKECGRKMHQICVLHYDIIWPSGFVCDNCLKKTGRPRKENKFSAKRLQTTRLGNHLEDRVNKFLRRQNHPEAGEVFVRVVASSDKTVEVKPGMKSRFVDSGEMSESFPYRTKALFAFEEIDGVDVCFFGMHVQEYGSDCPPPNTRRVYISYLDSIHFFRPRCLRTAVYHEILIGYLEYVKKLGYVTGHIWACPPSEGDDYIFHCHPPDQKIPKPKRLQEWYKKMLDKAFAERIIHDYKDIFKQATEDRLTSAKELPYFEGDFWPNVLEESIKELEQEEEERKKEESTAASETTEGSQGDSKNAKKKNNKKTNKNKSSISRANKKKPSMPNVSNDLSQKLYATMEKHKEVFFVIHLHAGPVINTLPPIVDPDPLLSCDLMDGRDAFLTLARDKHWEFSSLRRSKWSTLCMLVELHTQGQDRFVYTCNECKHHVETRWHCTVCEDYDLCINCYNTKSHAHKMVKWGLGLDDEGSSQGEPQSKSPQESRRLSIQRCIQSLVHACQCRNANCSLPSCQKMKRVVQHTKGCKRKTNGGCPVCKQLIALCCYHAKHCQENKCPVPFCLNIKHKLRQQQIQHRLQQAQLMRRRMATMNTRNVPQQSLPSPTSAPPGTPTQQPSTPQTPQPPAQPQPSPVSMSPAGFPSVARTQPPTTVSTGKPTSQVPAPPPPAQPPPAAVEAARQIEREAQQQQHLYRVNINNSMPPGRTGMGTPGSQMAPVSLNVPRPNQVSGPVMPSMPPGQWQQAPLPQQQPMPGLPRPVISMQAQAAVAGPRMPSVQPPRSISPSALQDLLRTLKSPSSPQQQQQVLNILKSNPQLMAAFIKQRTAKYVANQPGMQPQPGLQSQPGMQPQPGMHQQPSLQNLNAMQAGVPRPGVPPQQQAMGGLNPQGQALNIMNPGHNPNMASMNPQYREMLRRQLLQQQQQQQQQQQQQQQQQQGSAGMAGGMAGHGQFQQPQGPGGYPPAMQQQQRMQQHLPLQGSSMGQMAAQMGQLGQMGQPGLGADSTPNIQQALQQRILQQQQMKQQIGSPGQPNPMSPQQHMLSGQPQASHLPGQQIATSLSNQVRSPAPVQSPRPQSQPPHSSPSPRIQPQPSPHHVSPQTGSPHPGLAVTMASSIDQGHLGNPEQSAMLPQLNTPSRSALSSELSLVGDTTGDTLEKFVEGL

| Dmax (CBP) [%] | DC50 (CBP) [nM] | DC50 (P300) [nM] | Dmax (P300) [%] | Structure (SMILES) | IC50 (HL60; [1]) [nM] | IC50 (22Rv1 cells) [nM] | further results |
| --- | --- | --- | --- | --- | --- | --- | --- |
|  |  |  |  | CC(=O)N1CCc2c(c(N3CCCc4cc(-c5cnn(C)c5)c(C(F)F)cc43)nn2C[C@H]2CC[C@H](N3Cc4cc5c(cc4C3)C(=O)N(C3CCC(=O)NC3=O)C5=O)CC2)C1 (relative stereo) [CP-039, 6-(-4-((5-acetyl-3-(7-(difluoromethyl)-6-(1-methyl-1H-pyrazol-4-yl)-3,4-dihydroquinolin-1(2H)-yl)-4,5,6,7-tetrahydro-1H-pyrazolo[4,3-c]pyridin-1-yl)methyl)cyclohexyl)-2-(2,6-dioxopiperidin-3-yl)-6,7-dihydropyrrolo[3,4-f]isoindole-1,3(2H,5H)-dione] | < 100 | < 1000 |  |
| > 90 | < 10 |  |  | CC(=O)N1CCc2c(c(N3CCCc4cc(-c5cnn(C)c5)c(C(F)F)cc43)nn2C[C@H]2CC[C@@H](N3CCc4cc5c(cc4C3)C(=O)N(C3CCC(=O)NC3=O)C5=O)CC2)C1 (relative stereo) [CP-042, 6-(4-((5-acetyl-3-(7-(difluoromethyl)-6-(1-methyl-1H-pyrazol-4-yl)-3,4-dihydroquinolin-1(2H)-yl)-4,5,6,7-tetrahydro-1H-pyrazolo[4,3-c]pyridin-1-yl)methyl)cyclohexyl)-2-(2,6-dioxopiperidin-3-yl)-5,6,7,8-tetrahydro-1H-pyrrolo[3,4-g]isoquinoline-1,3(2H)-dione] |  |  | IC50 (HL60; HL-60, HL60 cells, read-out: Cell Growth Inhibition (IC50) HL60): < 100 nM; IC50 (22Rv1 cells; 22Rv1 cells, 96 h incubation): < 1000 nM |
|  |  |  |  | CC(=O)N1CCc2c(c(N3CCCc4cc(-c5cnn(C)c5)c(C(F)F)cc43)nn2[C@H]2CC[C@@H](CN3Cc4cc5c(cc4C3)C(=O)N(C3CCC(=O)NC3=O)C5=O)CC2)C1 (relative stereo) [CP-046, 6-((4-(5-acetyl-3-(7-(difluoromethyl)-6-(1-methyl-1H-pyrazol-4-yl)-3,4-dihydroquinolin-1(2H)-yl)-4,5,6,7-tetrahydro-1H-pyrazolo[4,3-c]pyridin-1-yl)cyclohexyl)methyl)-2-(2,6-dioxopiperidin-3-yl)-6,7-dihydropyrrolo[3,4-f]isoindole-1,3(2H,5H)-dione] | < 100 | < 100 |  |
|  |  |  |  | CC(=O)N1CCc2c(c(N3CCCc4cc(-c5cnn(C)c5)c(C(F)F)cc43)nn2C2CCN(C(=O)CN3Cc4cc5c(cc4C3)C(=O)N(C3CCC(=O)NC3=O)C5=O)CC2)C1 (stereo not drawn) [CP-005, 6-(2-(4-(5-acetyl-3-(7-(difluoromethyl)-6-(1-methyl-1H-pyrazol-4-yl)-3,4-dihydroquinolin-1(2H)-yl)-4,5,6,7-tetrahydro-1H-pyrazolo[4,3-c]pyridin-1-yl)piperidin-1-yl)-2-oxoethyl)-2-(2,6-dioxopiperidin-3-yl)-6,7-dihydropyrrolo[3,4-f]isoindole-1,3(2H,5H)-dione] | < 100 | < 100 |  |
|  |  |  |  | CC(=O)N1CCc2c(c(N3CCCc4cc(-c5cnn(C)c5)c(C(F)F)cc43)nn2C2CCC(N3Cc4cc5c(cc4C3)C(=O)N(C3CCC(=O)NC3=O)C5=O)CC2)C1 (stereo not drawn) [CP-037, 6-(4-(5-acetyl-3-(7-(difluoromethyl)-6-(1-methyl-1H-pyrazol-4-yl)-3,4-dihydroquinolin-1(2H)-yl)-4,5,6,7-tetrahydro-1H-pyrazolo[4,3-c]pyridin-1-yl)cyclohexyl)-2-(2,6-dioxopiperidin-3-yl)-6,7-dihydropyrrolo[3,4-f]isoindole-1,3(2H,5H)-dione] | < 100 | < 100 |  |
|  |  |  |  | CC(=O)N1CCc2c(c(N3CCCc4cc(-c5cnn(C)c5)c(C(F)F)cc43)nn2C[C@H]2CC[C@@H](N3Cc4cc5c(cc4C3)C(=O)N(C3CCC(=O)NC3=O)C5=O)CC2)C1 (stereo partly drawn) [CP-040, 6-(4-((5-acetyl-3-(7-(difluoromethyl)-6-(1-methyl-1H-pyrazol-4-yl)-3,4-dihydroquinolin-1(2H)-yl)-4,5,6,7-tetrahydro-1H-pyrazolo[4,3-c]pyridin-1-yl)methyl)cyclohexyl)-2-(2,6-dioxopiperidin-3-yl)-6,7-dihydropyrrolo[3,4-f]isoindole-1,3(2H,5H)-dione] | < 100 | < 1000 |  |
|  |  |  |  | CC(=O)N1CCc2c(c(N3CCCc4cc(-c5cnn(C)c5)c(C(F)F)cc43)nn2C[C@H]2CC[C@H](CN3Cc4cc5c(cc4C3)C(=O)N(C3CCC(=O)NC3=O)C5=O)CC2)C1 (stereo partly drawn) [CP-043, 6-((4-((5-acetyl-3-(7-(difluoromethyl)-6-(1-methyl-1H-pyrazol-4-yl)-3,4-dihydroquinolin-1(2H)-yl)-4,5,6,7-tetrahydro-1H-pyrazolo[4,3-c]pyridin-1-yl)methyl)cyclohexyl)methyl)-2-(2,6-dioxopiperidin-3-yl)-6,7-dihydropyrrolo[3,4-f]isoindole-1,3(2H,5H)-dione] | < 1000 | < 10000 |  |
|  |  |  |  | CC(=O)N1CCc2c(c(N3CCCc4cc(-c5cnn(C)c5)c(C(F)F)cc43)nn2C2CCC(CCN3Cc4cc5c(cc4C3)C(=O)N(C3CCC(=O)NC3=O)C5=O)CC2)C1 (stereo not drawn) [CP-044, 6-(2-(4-(5-acetyl-3-(7-(difluoromethyl)-6-(1-methyl-1H-pyrazol-4-yl)-3,4-dihydroquinolin-1(2H)-yl)-4,5,6,7-tetrahydro-1H-pyrazolo[4,3-c]pyridin-1-yl)cyclohexyl)ethyl)-2-(2,6-dioxopiperidin-3-yl)-6,7-dihydropyrrolo[3,4-f]isoindole-1,3(2H,5H)-dione] | < 100 | < 100 |  |
|  |  |  |  | CC(=O)N1CCc2c(c(N3CCCc4cc(-c5cnn(C)c5)c(C(F)F)cc43)nn2[C@H]2CC[C@H](CN3Cc4cc5c(cc4C3)C(=O)N(C3CCC(=O)NC3=O)C5=O)CC2)C1 (stereo partly drawn) [CP-047, 6-((4-(5-acetyl-3-(7-(difluoromethyl)-6-(1-methyl-1H-pyrazol-4-yl)-3,4-dihydroquinolin-1(2H)-yl)-4,5,6,7-tetrahydro-1H-pyrazolo[4,3-c]pyridin-1-yl)cyclohexyl)methyl)-2-(2,6-dioxopiperidin-3-yl)-6,7-dihydropyrrolo[3,4-f]isoindole-1,3(2H,5H)-dione] | < 100 | < 100 |  |
| > 70 | < 10 | < 10 | > 70 | CC(=O)N1CCc2c(c(N3CCCc4cc(-c5cnn(C)c5)c(C(F)F)cc43)nn2C2CCC(N3CC4(Cc5cc6c(cc5C4)C(=O)N(C4CCC(=O)NC4=O)C6=O)C3)CC2)C1 (stereo not drawn) [CP-086, 1-(4-(5-acetyl-3-(7-(difluoromethyl)-6-(1-methyl-1H-pyrazol-4-yl)-3,4-dihydroquinolin-1(2H)-yl)-4,5,6,7-tetrahydro-1H-pyrazolo[4,3-c]pyridin-1-yl)cyclohexyl)-2′-(2,6-dioxopiperidin-3-yl)-5′,7′-dihydro-1′H-spiro[azetidine-3,6′-cyclopenta[f]isoindole]-1′,3′(2′H)-dione] |  |  |  |
| < 50 | > 1000 | > 1000 | < 50 | CC(=O)N1CCc2c(c(N3CCCc4cc(-c5cnn(C)c5)c(C(F)F)cc43)nn2C2CCC(N3CCc4ccc5c(c4C3)C(=O)N(C3CCC(=O)NC3=O)C5=O)CC2)C1 (stereo not drawn) [CP-087, 8-((1r,4r)-4-(5-acetyl-3-(7-(difluoromethyl)-6-(1-methyl-1H-pyrazol-4-yl)-3,4-dihydroquinolin-1(2H)-yl)-4,5,6,7-tetrahydro-1H-pyrazolo[4,3-c]pyridin-1-yl)cyclohexyl)-2-(2,6-dioxopiperidin-3-yl)-6,7,8,9-tetrahydro-1H-pyrrolo[3,4-h]isoquinoline-1,3(2H)-dione] |  |  |  |
| > 70 | < 10 | < 10 | > 70 | CC(=O)N1CCc2c(c(N3CCCc4cc(-c5cnn(C)c5)c(C(F)F)cc43)nn2[C@H]2CC[C@H](CN3CC4(Cc5cc6c(cc5C4)C(=O)N(C4CCC(=O)NC4=O)C6=O)C3)CC2)C1 (stereo partly drawn) [CP-088, 1-(((1r,4r)-4-(5-acetyl-3-(7-(difluoromethyl)-6-(1-methyl-1H-pyrazol-4-yl)-3,4-dihydroquinolin-1(2H)-yl)-4,5,6,7-tetrahydro-1H-pyrazolo[4,3-c]pyridin-1-yl)cyclohexyl)methyl)-2′-(2,6-dioxopiperidin-3-yl)-5′,7′-dihydro-1′H-spiro[azetidine-3,6′-cyclopenta[f]isoindole]-1′,3′(2′H)-dione] |  |  |  |
| < 50 | > 1000 | > 1000 | < 50 | CC(=O)N1CCc2c(c(N3CCCc4cc(-c5cnn(C)c5)c(C(F)F)cc43)nn2[C@H]2CC[C@H](CN3CCc4ccc5c(c4C3)C(=O)N(C3CCC(=O)NC3=O)C5=O)CC2)C1 (stereo partly drawn) [CP-089, 8-(((1r,4r)-4-(5-acetyl-3-(7-(difluoromethyl)-6-(1-methyl-1H-pyrazol-4-yl)-3,4-dihydroquinolin-1(2H)-yl)-4,5,6,7-tetrahydro-1H-pyrazolo[4,3-c]pyridin-1-yl)cyclohexyl)methyl)-2-(2,6-dioxopiperidin-3-yl)-6,7,8,9-tetrahydro-1H-pyrrolo[3,4-h]isoquinoline-1,3(2H)-dione] |  |  |  |

Source: patent publication US20240150360A1 (THE REGENTS OF THE UNIVERSITY OF MICHIGAN, priority 2021, published 2024)
